Reference: US9339522B2, “Method for regulating blood glucose level” (SINPHAR PHARMACEUTICAL CO., LTD., priority 2013, dated 2016)

Columns and labels:
[1] = test system: human hepatocellular liver carcinoma cell line (HepG2); assay: Carbohydrate consumption assay in HepG2 cells; format: cell-based
Method: A carbohydrate consumption assay was conducted by using human hepatocellular liver carcinoma cell line (HepG2, Bioresource Collection and Research Center, BCRC number: 60025). The cells were treated with 1000 μg/ml glucose, and then treated with 100 nM insulin, 50 μg/ml Cistanche tubulosa extract (CTE), 12.5 μg/ml of echinacoside, 1.25 μg/ml of acteoside, or 2.25 μg/ml of isoacteoside (i.e., an active component by an amount of what it presents in the extract). After 1 hour, the carbohydrate consumption level was determined. The results are shown in FIG. 10, wherein the data were shown as mean±standard deviation (n=3); ***P<0.001 (as compared to the control group).
To further confirm if the active components that are present in Cistanche tubulosa extract have the effect of accelerating liver cells to uptake blood sugar, a carbohydrate consumption assay as described above was conducted by using different concentrations of Cistanche tubulosa extract, echinacoside, acteoside and isoacteoside to treated the HepG2 cells. The results are shown in FIG. 11, wherein the data were shown as mean±standard deviation (n=3); **P<0.01; ***P<0.001 (as compared to the control group); #P<0.05 (as compared to the insulin group).

[2] = test system: mice having type I diabetes or type II diabetes induced by different medicaments; settings: mice with induced type I or type II diabetes; acteoside obtained from plantago; CN 102283854 A; cited from earlier work
liver cells = settings: acteoside obtained from plantago, CN 102283854 A; cited from earlier work
induced diabetic rats [3] = assay: Homeostasis model assessment equation of insulin resistance (HOMA-IR); format: in vivo, SD (Sprague-Dawley) rats; settings: DMR group: rosiglitazone 0.571 mg/kg body weight oral once daily 6 weeks; DM + 45% HFD rats; mean, n = 10
Method: 4-week-old male SD (Sprague-Dawley) rats were fed for one week, and then randomly divided into six groups (10 rats in each group), including five experimental groups and a control group. The rats in the experimental groups were intraperitoneally injected with 230 mg/kg body weight of nicotinamide, and then intraperitoneally injected with 65 mg/kg body weight of streptozocin to induced diabetes mellitus (the DM group). The control group was intraperitoneally injected with the same volume of a citrate buffer (pH 4.5). After a week, the fasting blood glucose of the induced diabetic rats in the experimental groups were measured, to confirmed the fasting blood glucose>[…]. The rats were then fed with a 45% high fat diet (HFD) for 6 weeks. […] The body weight of the rats was measured weekly and the caloric intake was calculated. […]
The homeostasis model assessment equation of insulin resistance (HOMA-IR) was calculated by the formula as follows: HOMA-IR=fasting plasma insulin concentration (mU/ml)×fasting plasma glucose concentration (mmole/L)÷22.5

induced diabetic rats [4] = assay: Liver and kidney function indicators in plasma (urea, creatinine, ALT, AST); format: in vivo, SD (Sprague-Dawley) rats; settings: DMR group: rosiglitazone 0.571 mg/kg body weight oral once daily 6 weeks, DM + 45% HFD rats, mean, n = 10
Method: (§1) 4-week-old male SD (Sprague-Dawley) rats were fed for one week, and then randomly divided into six groups (10 rats in each group), including five experimental groups and a control group. The rats in the experimental groups were intraperitoneally injected with 230 mg/kg body weight of nicotinamide, and then intraperitoneally injected with 65 mg/kg body weight of streptozocin to induced diabetes mellitus (the DM group). The control group was intraperitoneally injected with the same volume of a citrate buffer (pH 4.5). […] The rats in the control group and the DM group were administered with double distilled water once daily for 6 weeks. The body weight of the rats was measured weekly and the caloric intake was calculated.
(§2) After the above glucose tolerance test, the rats were sacrificed, and the blood samples were taken from the celiac artery. The blood samples were centrifuged at 3000 rpm, 4° C. for 15 minutes. The supernatant was collected, which is the plasma. Other tissue of the rats was also taken out and weighed, and then stored at −80° C. for the following biochemical data analysis.
It has been known that diabetes mellitus may cause a lot of complications.

induced diabetic rats [5] = assay: Over-oxidation of plasma lipid (plasma malondialdehyde); format: in vivo, SD (Sprague-Dawley) rats; settings: DMR group: rosiglitazone 0.571 mg/kg body weight oral once daily 6 weeks, DM + 45% HFD rats, mean, n = 10
Method: as §1, §2

induced diabetic rats [6] = assay: Plasma antioxidant enzymes (SOD, catalase, GPx); format: in vivo, SD (Sprague-Dawley) rats; settings: DMR group: rosiglitazone 0.571 mg/kg body weight oral once daily 6 weeks, DM + 45% HFD rats, mean, n = 10
Method: as §1, §2
It has been known that both Type I diabetes mellitus and Type II diabetes mellitus may cause the decreased expression of antioxidant enzymes in the body, and thus, increases oxidative stress. In this experiment, the concentrations of superoxide dismutase (SOD) catalase, and glutathione peroxidase (GPx) in the plasma of the rats were analyzed by an SOD detection kit, a catalase detection kit, and a GPx detection kit (Eugene-Chen CO., LTD, TW), respectively, to analyze the effect of CTE on the expression levels of antioxidant enzymes.

[7] = Weights of the liver, kidney, heart, and abdominal fat of the rats; format: in vivo, SD (Sprague-Dawley) rats; settings: DMR group: rosiglitazone 0.571 mg/kg body weight oral once daily 6 weeks; DM + 45% HFD rats; mean, n = 10
Method: (§3) 4-week-old male SD (Sprague-Dawley) rats were fed for one week, and then randomly divided into six groups (10 rats in each group), including five experimental groups and a control group. The rats in the experimental groups were intraperitoneally injected with 230 mg/kg body weight of nicotinamide, and then intraperitoneally injected with 65 mg/kg body weight of streptozocin to induced diabetes mellitus (the DM group). The control group was intraperitoneally injected with the same volume of a citrate buffer (pH 4.5). After a week, the fasting blood glucose of the induced diabetic rats in the experimental groups were measured, to confirmed the fasting blood glucose>[…]. The rats were then fed with a 45% high fat diet (HFD) for 6 weeks. Then, using the dosage shown in Table 1, the rats were orally administered with 0.571 mg/kg body weight of rosiglitazone (a medicine for regulating blood glucose levels, which is an insulin sensitizer) (DMR group) or 80 mg/kg body weight of Cistanche tubulosa extract (CTE) (DME1 group), 160 mg/kg body weight of CTE (DME2 group), or 320 mg/kg body weight of CTE (DME4 group), once daily for 6 weeks. The rats in the control group and the DM group were administered with double distilled water once daily for 6 weeks. The body weight of the rats was measured weekly and the caloric intake was calculated. The results are shown in FIG. 1 (body weight) and FIG. 2 (caloric intake).
In this experiment, the weights of the liver, kidney, heart, and abdominal fat of the rats treated with different conditions for 6 weeks were determined.

induced diabetic rats [8] = assay: Determination of plasma insulin concentration (ELISA); format: in vivo, SD (Sprague-Dawley) rats; settings: DMR group: rosiglitazone 0.571 mg/kg body weight oral once daily 6 weeks, DM + 45% HFD rats, mean, n = 10
Method: as §1, §2

[9] = Body weight and caloric intake of diabetic SD rats during 6 weeks treatment; format: in vivo, SD (Sprague-Dawley) rats; settings: FIG. 1; measured weekly; comparison between groups; rosiglitazone 0.571 mg/kg, CTE 80, 160, 320 mg/kg oral once daily 6 weeks
Method: as §3, with “The results are shown in FIG. 1 (body weight) and FIG. 2 (caloric intake).” left out

induced diabetic rats [10] = assay: Determination of total cholesterol concentration in plasma; format: in vivo, SD (Sprague-Dawley) rats; settings: DMR group: rosiglitazone 0.571 mg/kg body weight oral once daily 6 weeks, DM + 45% HFD rats, mean, n = 10
Method: as §1, §2

induced diabetic rats [11] = assay: Determination of total triglyceride concentration in plasma; format: in vivo, SD (Sprague-Dawley) rats; settings: DMR group: rosiglitazone 0.571 mg/kg body weight oral once daily 6 weeks, DM + 45% HFD rats, mean, n = 10
Method: as §1, §2

induced diabetic rats [12] = assay: Determination of plasma leptin concentration (enzyme immunoassay); format: in vivo, SD (Sprague-Dawley) rats; settings: DMR group: rosiglitazone 0.571 mg/kg body weight oral once daily 6 weeks, DM + 45% HFD rats, mean, n = 10
Method: as §1, §2

induced diabetic rats [13] = assay: Determination of fasting plasma glucose concentration; format: in vivo, SD (Sprague-Dawley) rats; settings: DMR group: rosiglitazone 0.571 mg/kg body weight oral once daily 6 weeks; DM + 45% HFD rats; mean, n = 10
Method: as §1, §2

[14] = FIG. 11, 5 μg/ml and 50 μg/ml, HepG2, compared to the control group, dose dependence
[15] = FIG. 11, very low concentration, such as 5 μg/ml, HepG2

C[C@@H]1O[C@@H](O[C@@H]2[C@@H](O)[C@H](OCCc3ccc(O)c(O)c3)O[C@H](CO)[C@H]2OC(=O)/C=C/c2ccc(O)c(O)c2)[C@H](O)[C@H](O)[C@H]1O [acteoside]
Carbohydrate consumption level ([1]; FIG. 10, 1.25 μg/ml, HepG2, 1000 μg/ml glucose, after 1 hour, compared to the control group): not obvious | Carbohydrate consumption level [1, 14]: effectively increase | Fasting blood glucose level [2]: decrease | Serum insulin level [2]: enhancing | Consumption of glucose (liver cells): effective in promoting the consumption of glucose

C[C@@H]1O[C@@H](O[C@@H]2[C@@H](O)[C@H](OCCc3ccc(O)c(O)c3)O[C@H](CO[C@@H]3O[C@H](CO)[C@@H](O)[C@H](O)[C@H]3O)[C@H]2OC(=O)/C=C/c2ccc(O)c(O)c2)[C@H](O)[C@H](O)[C@H]1O [echinacoside]
Carbohydrate consumption level ([1]; FIG. 10, 12.5 μg/ml, HepG2, 1000 μg/ml glucose, after 1 hour, compared to the control group): effectively increase | Carbohydrate consumption level [1, 14]: effectively increase | Carbohydrate consumption level [1, 15]: increase

C[C@@H]1O[C@@H](O[C@@H]2[C@@H](O)[C@H](OCCc3ccc(O)c(O)c3)O[C@H](COC(=O)/C=C/c3ccc(O)c(O)c3)[C@H]2O)[C@H](O)[C@H](O)[C@H]1O [isoacteoside]
Carbohydrate consumption level ([1]; FIG. 10, 2.25 μg/ml, HepG2, 1000 μg/ml glucose, after 1 hour, compared to the control group): effectively increase | Carbohydrate consumption level [1, 14]: effectively increase | Carbohydrate consumption level [1, 15]: increase

CN(CCOc1ccc(CC2SC(=O)NC2=O)cc1)c1ccccn1 (stereo not shown) [rosiglitazone]
HOMA-IR (induced diabetic rats [3]): 2.37 μg · mmole/L^2 | ALT (induced diabetic rats [4]): 29.88 U/L | AST (induced diabetic rats [4]): 38.24 U/L | AST/ALT (induced diabetic rats [4]): 1.34 | Creatinine (induced diabetic rats [4]): 1.19 mg/dL | Urea (induced diabetic rats [4]): 19.14 mg/dL | Malondialdehyde (induced diabetic rats [5]): 13.38 nM/ml | Catalase (induced diabetic rats [6]): 60.05 U/mg protein | Glutathione peroxidase (induced diabetic rats [6]): 811.08 U/mg protein | Superoxide dismutase (induced diabetic rats [6]): 0.65 U/mg protein | Abdominal fat weight, percentage compared to body weight [7]: 2.49% | Heart weight, percentage compared to body weight [7]: 0.34% | Kidney weight, percentage compared to body weight [7]: 0.34% | Liver weight, percentage compared to body weight [7]: 3.21% | Insulin (induced diabetic rats [8]): 3.57 ng/mL | Body weight [9]: no significant difference | Total cholesterol (induced diabetic rats [10]): 106.90 mg/dL | The total triglyceride (induced diabetic rats [11]): 62.77 mg/dL | Leptin (induced diabetic rats [12]): 6.38 ng/mL | Fasting blood glucose (induced diabetic rats [13]): 134.37 mg/dL
